Results taken from ChEMBL document CHEMBL4828748, “Design, synthesis, and pharmacological evaluation of sinomenine derivatives on rings A and C: Novel compounds screening for aplastic anemia targeting on cytotoxic T lymphocyte” (Eur J Med Chem, 2021).

Legend:
Peritoneal macrophage = test: Inhibition of LPS-induced NO production in C57BL/6J mouse peritoneal macrophages at 10 uM measured after 24 hrs in presence of LPS by Griess reagent based assay relative to control; assay type: functional
[1] = Cytotoxicity against C57BL/6J mouse peritoneal macrophages assessed as reduction of cell viability at 10 uM incubated for 24 hrs in presence of LPS by MTT assay; assay type: cell-based, Peritoneal macrophage
[2] = Inhibition of mouse CTLL-2 cells activity at 10 uM incubated for 24 hrs; assay type: functional
[3] = Inhibition of mouse CTLL-2 cells activity incubated for 24 hrs; assay type: functional, cell-based
[4] = Acute toxicity in po dosed Kunming mouse; assay type: organism-based; details: in vivo

| Compound | inhibition at 10 µM (Peritoneal macrophage) | inhibition at 24 h, 10 µM [1] | inhibition at 10 µM [2] | IC50 [3] | LD50 [4] |
| --- | --- | --- | --- | --- | --- |
| CCCCCCCC/C=C/CCCCCCCCCCCC(=O)Oc1c(OC)ccc2c1[C@@]13CCN(C)[C@@H](C2)[C@H]1C=C(OC)C(=O)C3 | 3.5% | 0.4% | 32.6% | – | – |
| COC1=C[C@@H]2[C@@H]3Cc4c(CO)cc(OC)c(O)c4[C@]2(CCN3C)CC1=O | 3.6% | 1.2% | 6.1% | – | – |
| COC1=C[C@@H]2[C@@H]3Cc4ccc(OC)c(OC(=O)c5cccnc5)c4[C@]2(CCN3C)CC1=O | 14% | 0.8% | 3.2% | – | – |
| CCCCCCCCCCCC(=O)Oc1c(OC)ccc2c1[C@@]13CCN(C)[C@@H](C2)[C@H]1C=C(OC)C(=O)C3 | 42.7% | 4.4% | 98.7% | 3.8 µM | – |
| C=CCCCCCCCCC(=O)Oc1c(OC)cc(C=O)c2c1[C@@]13CCN(C)[C@@H](C2)[C@H]1C=C(OC)C(=O)C3 | 11.6% | 1.3% | 23.4% | – | – |
| COc1ccc2c(c1O)[C@@]13CCN(C)[C@@H](C2)[C@H]1C[C@@H](OC)C(=O)C3 | 6.5% | 6.5% | 5.8% | – | – |
| CCCCCCCCCCCCCC(=O)Oc1c(OC)ccc2c1[C@@]13CCN(C)[C@@H](C2)[C@H]1C=C(OC)C(=O)C3 | 4.3% | 2.7% | 88.1% | 4.3 µM | – |
| COc1ccc2c(c1OC(=O)c1cccnc1)[C@@]13CCN(C)[C@@H](C2)[C@H]1C[C@@H](OC)C(=O)C3 | 11.2% | 3.1% | 9.1% | – | – |
| COC1=C[C@@H]2[C@@H]3Cc4ccc(OC)c(O)c4[C@]2(CCN3C)CC1=O [SINOMENINE] | 7.5% | 1.3% | 2.8% | – | 1100 mg/kg |
